# From article PMC8533202, “Design of Inhibitors of the Intrinsically Disordered Protein NUPR1: Balance between Drug Affinity and Target Function” (Biomolecules, 2021)
# Read-outs that look alike come from different tables or passages of the source.
# Columns and labels:
# NUPR1 [1] = target: T1, NUPR1 (Homo sapiens, UniProt O60356); set-up: method as in PMID 28054562; conditions: molecular scaffold of TFP; cited from earlier work
# T1 construct: made in house
# T1 sequence (O60356 1-82): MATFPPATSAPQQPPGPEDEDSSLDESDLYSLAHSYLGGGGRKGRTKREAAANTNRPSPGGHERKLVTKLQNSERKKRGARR
# PDAC001T cells [2] = tested on: PDAC001T cells; set-up: method as in PMID 30920390; conditions: control, previously obtained; cited from earlier work
# PDAC088T cells [3] = tested on: PDAC088T cells; set-up: method as in PMID 30920390; conditions: control, previously obtained; cited from earlier work
# PDAC115T cells [4] = tested on: PDAC115T cells; set-up: method as in PMID 30920390; conditions: control, previously obtained; cited from earlier work
# MiaPaCa-2 cells [5] = tested on: MiaPaCa-2 cells; set-up: method as in PMID 30920390; conditions: control, previously obtained; cited from earlier work
# NUPR1 [6] = target: T1, NUPR1; set-up: method as in PMID 30920390; conditions: ITC; cited from earlier work
# PDAC012T cells [7] = tested on: PDAC012T cells; set-up: method as in PMID 30920390; conditions: control, previously obtained; cited from earlier work
# PDAC089T cells [8] = tested on: PDAC089T cells; set-up: method as in PMID 30920390; conditions: control, previously obtained; cited from earlier work
# PDAC087T cells [9] = tested on: PDAC087T cells; set-up: method as in PMID 30920390; conditions: control, previously obtained; cited from earlier work
# PDAC081T cells [10] = tested on: PDAC081T cells; set-up: method as in PMID 30920390; conditions: control, previously obtained; cited from earlier work
# PDAC021T cells [11] = tested on: PDAC021T cells; set-up: method as in PMID 30920390; conditions: control, previously obtained; cited from earlier work
# PDAC082T cells [12] = tested on: PDAC082T cells; set-up: method as in PMID 30920390; conditions: control, previously obtained; cited from earlier work
# NUPR1 [13] = target: T1, NUPR1; test: Isothermal titration calorimetry (ITC) binding to NUPR1; conditions: 25 °C
# Description: The binding of the ZZW-115-derived compounds to NUPR1 was determined as described by using a high sensitivity isothermal titration calorimeter Auto-iTC200 (MicroCal, Malvern-Panalytical, Malvern, UK). Protein samples and solutions were properly degassed. Experiments were performed with freshly prepared protein solutions at 25 °C. A solution of NUPR1 (20 μM, in sodium phosphate 20 mM, pH 7.0, 2% DMSO) in the calorimetric cell was titrated with a solution of each compound (200 μM, in sodium phosphate 20 mM pH 7.0, 2% DMSO). The inhibitors were dissolved in the same buffer used for the protein. A standard protocol was employed: 19 titrant injections with 2 μL compound solution were programmed with a time spacing of 150 s, a stirring speed of 750 rpm, and a reference power of 10 μcal/s. The heat evolved after each ligand injection was calculated from the integral of the calorimetric signal. The heat due to the binding reaction was obtained as the difference between the reaction heat and the corresponding heat of injection, the latter estimated as a constant value throughout the experiment, and included as an adjustable parameter in the analysis. Control experiments (with the compounds injected into the buffer) were performed under the same experimental conditions.
# The association constant (Ka), the enthalpy change (ΔH) and the stoichiometry (n) of the binding reaction were obtained through nonlinear regression analysis of experimental data to a model assuming a single ligand binding site for the protein. Experiments were performed in replicate and data were analyzed using in-house-developed software implemented in Origin 7 (OriginLab).
# The interaction between ZZW-115-Derived compounds and NUPR1 was studied by using ITC, the gold-standard technique in binding-affinity determination, to test our theoretical prediction. […] From the thermogram (thermal power as a function of time), the binding isotherm (ligand-normalized heat as a function of the molar ratio) was obtained through integration of the individual heat effect associated with injection of each ligand solution (Figure 3). We used a nonlinear least-squares regression analysis employing a model that considered a single binding site in NUPR1 to estimate binding parameters such as the dissociation constant and the binding enthalpy.
# [14] = tested on: NUPR1 nuclear translocation; test: NUPR1 nuclear translocation, immunofluorescence in MiaPaCa-2 cells; type: cell-based, human; conditions: 3 µM, 6 h (Figure 4)
# Description: Cells (100000 cells/well) were seeded in 12-well plates on coverslips overnight and then treated with 3 μM concentration of each compound for […]. After fixation with 4% paraformaldehyde (Sigma-Aldrich, St. Quentin, Fallavier, France) for 15 min, cells were washed twice with 1x PBS and incubated 1 h with the following antibodies at 1:200 dilution: rabbit anti-NUPR1 primary antibody (homemade) or γH2AX primary antibody (ab26350, Abcam, Paris, France). After the washing steps, samples were incubated 1 h with secondary antibodies at 1:500 dilution (goat anti-rabbit Alexa Fluor 488, A27034, or goat anti-mouse Alexa Fluor 488, A28175, both from Thermo Fisher Scientific, Franklin, MA, USA). ProLong™ Gold Antifade Mountant with DAPI (P36931, Thermo Fisher Scientific) was used to stain the nucleus and seal the samples. Image acquisition of Alexa Fluor 488-derived fluorescence and DAPI staining was detected with an LSM 880 controlled by Zeiss Zen Black 63x lens. Co-localization analysis and measurements in both channels were performed by using the ImageJ Coloc 2 plugin (version 3.0.5).
# MiaPaCa-2 cells were treated with representative ZZW-115-derived compounds (3 µM) for 6 h. […] DAPI staining was used to detect cell nuclei, and it was combined with the Alexa 488 fluorescence in the merged panel. […]
# PDAC021T cells [15] = test: Cell viability assay (PrestoBlue); type: cell-based; conditions: Homo sapiens; PDAC021T (basal subtype), 72 h
# Source text: (§1) Primary pancreatic cancer cells PDAC001T, PDAC012T, PDAC021T, PDAC081T, PDAC082T, PDAC087T, PDAC088T, PDAC089T, and PDAC115T were obtained from the PaCaOmics clinical trial registered at www.clinicaltrials.gov (accessed on 2 October 2021) with registration number NCT01692873. We included PDAC samples from both echoendoscopic ultrasound-guided fine-needle (EUS-FNA) biopsies for patients with unresectable tumors and from surgical specimens for patients undergoing surgery. The tumor samples of these patients were used to generate patient-derived xenograft in nude mice as previously reported. Xenografts obtained from mice were split into several small pieces and used for cell culture in a biosafety chamber: after fine mincing, they were treated with collagenase type V (ref C9263; Sigma-Aldrich, St. Louis, MO, USA) and trypsin/EDTA (ref 25200-056; Gibco, Life Technologies, Grand Island, NY, USA) and were suspended in Dulbecco’s modified Eagle’s medium supplemented with 1% w/w penicillin/streptomycin (Gibco, Life Technologies, Paisley, UK) and 10% fetal bovine serum (Lonza Inc., Walkersville, MD, USA). After centrifugation, cells were resuspended in serum-free ductal media adapted from Schreiber et al. at 37 °C in a 5% CO2 incubator. Amplified cells were stored in liquid nitrogen as previously reported. Cells were weaned from antibiotics for ≥48 h before testing.
# (§2) Cell viability was evaluated in ten pancreatic cancer cell lines, including MiaPaCa-2, and nine primary pancreatic cancer-derived cell lines: PDAC001T, PDAC012T, PDAC021T, PDAC081T, PDAC082T, PDAC087T, PDAC088T, PDAC089T, and PDAC115T. MiaPaCa-2 cells were obtained from ATCC (Manassas, VA, USA) and maintained in DMEM (Invitrogen, Cergy-Pontoise, France), supplemented with 10% […] at 37 °C with 5% CO2. The primary pancreatic cancer-derived cells were cultured in serum free ductal media (SFDM) following a procedure adapted from those previously described, without antibiotic, and incubated at 37 °C in a 5% CO2 incubator. Cells were plated in 96-well plates (5000 cells/well) overnight. Then, the media were supplemented with the compounds to be tested at 0–100 µM concentration, and the samples were incubated for another additional 72 h before performing the measurement. Cell viability was estimated after addition of PrestoBlue™ reagent (Life Technologies, Paris, France) for 3 h according to the PrestoBlue™ cell viability reagent protocol provided by the supplier. Cell viability was normalized when comparing to untreated cell rates. Experiments were performed in triplicate and each set was repeated three times, with similar results.
# PDAC012T cells [16] = test: Cell viability assay (PrestoBlue); type: cell-based; conditions: Homo sapiens; PDAC012T (classical subtype), 72 h
# Source text: as §1, §2
# PDAC001T cells [17] = test: Cell viability assay (PrestoBlue); type: cell-based; conditions: Homo sapiens; PDAC001T (basal subtype), 72 h
# Source text: as §1, §2
# PDAC089T cells [18] = test: Cell viability assay (PrestoBlue); type: cell-based; conditions: Homo sapiens; PDAC089T (derived from a liver metastasis), 72 h
# Source text: as §1, §2
# PDAC115T cells [19] = test: Cell viability assay (PrestoBlue); type: cell-based; conditions: Homo sapiens; PDAC115T (basal subtype), 72 h
# Source text: as §1, §2
# PDAC087T cells [20] = test: Cell viability assay (PrestoBlue); type: cell-based; conditions: Homo sapiens; PDAC087T (basal subtype), 72 h
# Source text: as §1, §2
# PDAC082T cells [21] = test: Cell viability assay (PrestoBlue); type: cell-based; conditions: Homo sapiens; PDAC082T (classical subtype), 72 h
# Source text: as §1, §2
# PDAC088T cells [22] = test: Cell viability assay (PrestoBlue); type: cell-based; conditions: Homo sapiens; PDAC088T (classical subtype), 72 h
# Source text: as §1, §2
# PDAC081T cells [23] = test: Cell viability assay (PrestoBlue); type: cell-based; conditions: Homo sapiens; PDAC081T (classical subtype), 72 h
# Source text: as §1, §2
# MiaPaCa-2 cells [24] = test: Cell viability assay (PrestoBlue); type: cell-based, human; conditions: MiaPaCa-2, 72 h
# Description: as §2
smiles,measurement,setting,value
"CN1CCN(CCCN2c3ccccc3Sc3ccc(C(F)(F)F)cc32)CC1 [TFP, trifluoperazine]",calculated binding score,NUPR1 [1],–7.0 kcal/mol
same,IC50,PDAC001T cells [2],12.5 µM
same,IC50,PDAC088T cells [3],15.9 µM
same,IC50,PDAC115T cells [4],10.1 µM
same,IC50,MiaPaCa-2 cells [5],9.28 µM
same,Ka,NUPR1 [6],1.9 ± 0.2 M^–1 × 10^5
same,N (stoichiometry),NUPR1 [6],1.0 ± 0.1
same,ΔG,NUPR1 [6],−7.2 ± 0.1 kcal mol^–1
same,ΔH,NUPR1 [6],−1.1 ± 0.4 kcal mol^–1
same,−TΔS,NUPR1 [6],−6.1 ± 0.4 kcal mol^–1
same,IC50,PDAC012T cells [7],20.4 µM
same,IC50,PDAC089T cells [8],8.09 µM
same,IC50,PDAC087T cells [9],7.8 µM
same,IC50,PDAC081T cells [10],2.48 µM
same,IC50,PDAC021T cells [11],23.5 µM
same,IC50,PDAC082T cells [12],21.5 µM
CN(C)CCN1CCN(CCCN2c3ccccc3Sc3ccc(C(F)(F)F)cc32)CC1 [ZZW-115],IC50,PDAC001T cells [2],1.84 µM
same,IC50,PDAC088T cells [3],5.29 µM
same,IC50,PDAC115T cells [4],2.21 µM
same,IC50,MiaPaCa-2 cells [5],0.32 µM
same,Ka,NUPR1 [6],4.7 ± 0.4 M^–1 × 10^5
same,N (stoichiometry),NUPR1 [6],0.9 ± 0.1
same,ΔG,NUPR1 [6],−7.7 ± 0.1 kcal mol^–1
same,ΔH,NUPR1 [6],−0.4 ± 0.3 kcal mol^–1
same,−TΔS,NUPR1 [6],−7.3 ± 0.3 kcal mol^–1
same,IC50,PDAC012T cells [7],2.44 µM
same,IC50,PDAC089T cells [8],4.72 µM
same,IC50,PDAC087T cells [9],3.72 µM
same,IC50,PDAC081T cells [10],0.84 µM
same,IC50,PDAC021T cells [11],2.54 µM
same,IC50,PDAC082T cells [12],2.36 µM
CN(C)CCCN1CCN(CCCN2c3ccccc3Sc3ccc(C(F)(F)F)cc32)CC1 [ZZW-142],N (stoichiometry),NUPR1 [13]; pH 7.0,1.3 ± 0.1
same,ΔG,NUPR1 [13]; pH 7.0,−7.8 ± 0.1 kcal mol^–1
same,ΔH,NUPR1 [13]; pH 7.0,0.3 ± 0.3 kcal mol^–1
same,−TΔS,NUPR1 [13]; pH 7.0,−8.1 ± 0.3 kcal mol^–1
same,Ka,"NUPR1 [13]; sodium phosphate 20 mM, pH 7.0, 2% DMSO",4.9 ± 0.3 M^–1 × 10^5
same,Kd,"NUPR1 [13]; sodium phosphate 20 mM, pH 7.0, 2% DMSO, read-out: Kd (=1/Ka)",2 ± 0.2 µM
same,ability to hamper NUPR1 nuclear translocation,[14],worst effect in hampering the nuclear translocation efficiency
same,IC50,PDAC021T cells [15],17 µM
same,IC50,PDAC012T cells [16],12.8 µM
same,IC50,PDAC001T cells [17],11.9 µM
same,IC50,PDAC089T cells [18],22.5 µM
same,IC50,PDAC115T cells [19],14.7 µM
same,IC50,PDAC087T cells [20],16.6 µM
same,IC50,PDAC082T cells [21],23 µM
same,IC50,PDAC088T cells [22],23.9 µM
same,IC50,PDAC081T cells [23],2.27 µM
same,IC50,"MiaPaCa-2 cells [24]; Homo sapiens, MIA PaCa-2, 72 h",~1 µM
same,IC50,MiaPaCa-2 cells [24],0.95 µM
